Measured values: patent US20180116972A1, “Lipid based nanocarrier compositions loaded with metal nanoparticles and therapeutic agent” (UNIVERSITE DE BORDEAUX, priority 2015, published 2018)
Entries after “also recorded” stand apart in the source; their conditions may differ.

Key:
[1] = test system: Platelet rich plasma (PRP); experiment: In vitro platelet aggregation (light transmission aggregometer); type: cell-based, healthy volunteers; conditions: 37° C.
Description: Blood was obtained in 1/10th volume of 3.8% sodium citrate from healthy volunteers who had not taken any drugs known to affect platelet function for 2 weeks prior to the study. Platelet rich plasma (PRP) was prepared by centrifugation at 20° C. for 10-15 min at 150-200 g and stored at room temperature.
Platelet-poor plasma (PPP) was prepared by further centrifugation of the remaining plasma at 2700 g for 15 min and was used to calibrate the 100% light transmission of the aggregometer.
The percentage of aggregation was followed versus time. PRP (207 μL) was stirred in cuvette at 37° C. and agonists adenosine 5′-diphosphate (ADP) or thrombin receptor-activating peptide -6 (TRAP-6) were added at 5 s to promote platelet aggregation, and was incubated either with the DOU-PEG2000-based nanocarrier composition containing iron oxide nanoparticles and prostacyclin (PGI2) of example 2, or with the iron oxide nanoparticles clusters encapsulated by diC16dT of preparation 2 (used as negative control) or with the agonist(s) only (negative control) or with the agonist(s) and PGI2 (positive control) for 15 min and 3 h for evaluating PGI2 activity. The in vitro platelet aggregation was determined using a four-channel light transmission aggregometer (APACT 4004, ELITech, France).
The results are shown on FIG. 12, where the curves numbered 1 to 7 represent the following experimental conditions: […]

[2] = Stability of a suspension of iron oxide nanoparticles clusters encapsulated by a lipid (DOPC) versus a nucleolipid (DOTAU); conditions: Milli-Q water, sonicated 3×15 minutes
Description: 75 μL of stock solution of (DOPC) (Avanti Polar ipids, 50 mg/mL in chloroform) and 20 μL of stock solution of iron oxide nanoparticles (10 mg/mL in chloroform) were mixed. The organic phase was added dropwise into the aqueous phase (2 ml of Milli-Q Water) placed in glass tube under stirring by vortex. Then the mixture was placed in a glass flask. Chloroform was removed under vacuum and the resulting crude material solution was sonicated 3 times (3×15 minutes) to give a precipitate.
The same protocol was followed, except that the nucleolipid N-[5′-(2′,3′-dioleoyl)uridine]-N′,N′,N′-trimethylammonium (DOTAU) was used instead of DOPC.

[3] = Size distribution measured by Dynamic Light Scattering (DLS); type: physicochemical

CCCCC[C@H](O)/C=C/[C@@H]1[C@H]2C/C(=C/CCCC(=O)O)O[C@H]2C[C@H]1O [PGI2, prostacyclin]
platelet aggregation induced by ADP ([1]; agonist ADP, 15 min incubation): totally inhibit | platelet aggregation induced by TRAP-6 ([1]; agonist TRAP-6, 3 h incubation): totally inhibit

CCCCCCCC/C=C\CCCCCCCC(=O)O[C@@H]1[C@H](OC(=O)CCCCCCC/C=C\CCCCCCCC)[C@@H](C[N+](C)(C)C)O[C@H]1n1ccc(=O)[nH]c1=O [DOTAU, N-[5′-(2′,3′-dioleoyl)uridine]-N′,N′,N′-trimethylammonium]
colloidal stability of the iron oxide nanoparticle suspension after sonication [2]: did not give a precipitate; also recorded: stable colloïdal suspension

APOA1: Apolipoprotein-A1 (Sigma Aldrich)
size distribution by number measured by DLS (d) [3]: 5.01 nm
